The compounds below were run against T1, CBL-B (Homo sapiens, UniProt Q13191) (assay: CBL-B TR-FRET IC50 screening (E1/E2 ubiquitination, Biotin-Ubiquitin, Anti GST-Tb donor / Streptavidin-d2 acceptor)). Conditions: CBL-B 10 nM final; 11-point titration from 100 uM; binned A-F; read-out: CBL-B TR-FRET activity IC50.
T1 construct: GST
Type: biochemical

T1 sequence (Q13191 whole entry): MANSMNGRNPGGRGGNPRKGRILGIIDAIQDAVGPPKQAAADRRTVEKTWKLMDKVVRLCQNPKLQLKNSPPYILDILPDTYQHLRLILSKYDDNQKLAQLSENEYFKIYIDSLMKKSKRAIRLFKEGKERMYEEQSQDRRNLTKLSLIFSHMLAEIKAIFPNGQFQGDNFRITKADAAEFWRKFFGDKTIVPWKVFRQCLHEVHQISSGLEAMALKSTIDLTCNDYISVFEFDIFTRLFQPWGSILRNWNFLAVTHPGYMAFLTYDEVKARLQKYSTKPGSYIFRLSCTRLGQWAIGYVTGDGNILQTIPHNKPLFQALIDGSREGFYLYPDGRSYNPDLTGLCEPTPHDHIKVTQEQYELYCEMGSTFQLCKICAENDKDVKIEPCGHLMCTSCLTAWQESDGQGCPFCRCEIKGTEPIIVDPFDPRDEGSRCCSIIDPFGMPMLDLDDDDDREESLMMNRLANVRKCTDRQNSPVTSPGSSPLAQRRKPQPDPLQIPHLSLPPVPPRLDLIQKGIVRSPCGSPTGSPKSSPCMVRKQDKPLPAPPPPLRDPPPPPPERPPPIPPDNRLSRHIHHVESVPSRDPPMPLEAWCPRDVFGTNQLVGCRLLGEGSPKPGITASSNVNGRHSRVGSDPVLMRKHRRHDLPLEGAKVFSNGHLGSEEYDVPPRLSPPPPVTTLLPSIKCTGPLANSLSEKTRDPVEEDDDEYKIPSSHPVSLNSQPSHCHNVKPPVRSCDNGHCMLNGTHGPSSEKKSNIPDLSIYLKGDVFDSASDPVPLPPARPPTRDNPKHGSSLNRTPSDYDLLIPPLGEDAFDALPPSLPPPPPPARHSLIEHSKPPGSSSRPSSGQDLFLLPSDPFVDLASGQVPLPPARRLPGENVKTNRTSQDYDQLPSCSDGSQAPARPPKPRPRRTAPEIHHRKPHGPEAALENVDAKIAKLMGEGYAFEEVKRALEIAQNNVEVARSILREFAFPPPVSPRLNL

Row | SMILES | IC50
1 | C[C@H]1CCCN(Cc2cc(C(F)(F)F)c3cn(-c4cccc([C@H](c5nncn5C)[C@H]5C[C@@H](CO)C5)c4)c(=O)n3c2)C1 (single isomer, unassigned) [Compound 356] | < 0.1 µM
2 | C[C@@H]1CCCCN1Cc1cc(C(F)(F)F)c2cn(-c3cccc([C@@H](c4nncn4C)C4CCC4)c3)c(=O)n2c1 [Compound 363_P1] | > 10 µM
3 | C[C@H](c1cc(C(F)(F)F)c2cn(-c3cccc(C4(Cc5nncn5C)COC4)c3)c(=O)n2c1)N1CCC(C)(F)CC1 [Compound 42] | < 0.1 µM
4 | C[C@@H](c1cc(C(F)(F)F)c2cn(-c3cccc(C4(Cc5nncn5C)COC4)c3)c(=O)n2c1)N1CC[C@H](F)C1 [Compound 39] | < 0.1 µM
5 | CC1CN(Cc2cc(C(F)(F)F)c3cn(-c4cccc([C@H](c5nncn5C)C5CCC5)c4)c(=O)n3c2)CCC1(F)F (single isomer, unassigned) [Compound 172] | < 0.1 µM
6 | C[C@H]1CCCN(Cc2cc(C(F)(F)F)c3cn(-c4cccc([C@]5(c6nncs6)C[C@H](C)C5)c4)c(=O)n3c2)C1 (single isomer, unassigned) [Compound 293] | 0.1 to 0.3 µM
7 | Cn1cnnc1[C@@H](c1cccc(-n2cc3c(C(F)(F)F)cc(CN4CCC(C)(C)C4)cn3c2=O)c1)C1CCC1 [Compound 245] | < 0.1 µM
8 | Cc1c[nH]nc1[C@H](c1cccc(-n2cc3c(C(F)(F)F)cc(CN4CCO[C@H](C)C4)cn3c2=O)c1)C1COC1 [Compound 267] | > 10 µM
9 | C[C@H]1CCCN(Cc2cc(C(F)(F)F)c3cn(-c4cccc([C@H](CC5CCC5)c5nncn5C)c4)c(=O)n3c2)C1 [Compound 352_P1] | > 10 µM
10 | CN(CCO)C(=O)c1cc(C(F)(F)F)c2cn(-c3cccc(C4(Cc5nncn5C)COC4)c3)c(=O)n2c1 [Compound 38] | 0.301 to 1 µM
11 | C[C@H]1CCCN(Cc2cc(C(F)(F)F)c3cn(-c4cccc([C@@H](c5nc(C#N)cs5)C5CCC5)c4)c(=O)n3c2)C1 (single isomer, unassigned) [Compound 372] | > 10 µM
12 | Cn1cnnc1[C@@H](c1cccc(-n2cc3c(C(F)(F)F)cc(CN4CC[C@H](C#N)C4)cn3c2=O)c1)C1CCC1 (single isomer, unassigned) [Compound 174] | < 0.1 µM
13 | Cn1cnnc1CC1(c2cccc(-n3cc4c(C(F)(F)F)cc(CN5CCC6(CC6)C5)cn4c3=O)c2)COC1 [Compound 10] | < 0.1 µM
14 | CC(c1cc(C(F)(F)F)c2cn(-c3cccc(C4(Cc5nncn5C)COC4)c3)c(=O)n2c1)N1CCO[C@H](C)C1 (single isomer, unassigned) [Compound 157] | < 0.1 µM

Second part, the compound after the results:

Row | IC50 | SMILES
15 | 0.301 to 1 µM | C[C@H]1CCCN(Cc2cc(C(F)(F)F)c3cn(-c4cccc([C@@H](c5nncs5)C5CCC5)c4)c(=O)n3c2)C1 (single isomer, unassigned) [Compound 203]
16 | < 0.1 µM | COC(=O)N1CCN(Cc2cc(C(F)(F)F)c3cn(-c4cccc([C@H](c5nncn5C)C5CCC5)c4)c(=O)n3c2)CC1 [Compound 351_P2]
17 | > 10 µM | C[C@H]1CCCN(Cc2cc(C(F)(F)F)c3cn(-c4cccc(C5(c6nncs6)CC6(CC6)C5)c4)c(=O)n3c2)C1 [Compound 311]
18 | > 10 µM | Cc1cn(CCO)nc1[C@H](c1cccc(-n2cc3c(C(F)(F)F)cc(CN4CCC[C@H](C)C4)cn3c2=O)c1)C1CCC1 (single isomer, unassigned) [Compound 361]
19 | < 0.1 µM | CO[C@@H]1CCN(Cc2cc(C(F)(F)F)c3cn(-c4cccc([C@H](c5nncn5C)C5CCC5)c4)c(=O)n3c2)C1 [Compound 249]
20 | 0.1 to 0.3 µM | Cn1cnnc1C1(c2cccc(-n3cc4c(C(F)(F)F)cc(Br)cn4c3=O)c2)CC2(CC2)C1 [Compound 103]
21 | 3 to 10 µM | Cc1cn(C)nc1CC1(c2cccc(-n3cc4c(C(F)(F)F)cc(CN5CCC[C@H](C)C5)cn4c3=O)c2)COC1 [Compound 197]
22 | < 0.1 µM | C[C@@H]1CN(Cc2cc(C(F)(F)F)c3cn(-c4cccc([C@]5(c6nncn6C)C[C@@H](C)C5)c4)c(=O)n3c2)CCO1 (single isomer, unassigned) [Compound 213]
23 | < 0.1 µM | COC1CCN(Cc2cc(C(F)(F)F)c3cn(-c4cccc(C5(Cc6nncn6C)COC5)c4)c(=O)n3c2)CC1 [Compound 49]
24 | 0.1 to 0.3 µM | C[C@H]1CCCCN1Cc1cc(C(F)(F)F)c2cn(-c3cccc([C@H](c4nncn4C)C4CCC4)c3)c(=O)n2c1 [Compound 362_P2]
25 | 0.301 to 1 µM | Cn1cnnc1[C@@H](c1cccc(-n2cc3c(C(F)(F)F)cc(-c4nncs4)cn3c2=O)c1)C1CCC1 [Compound 331]
26 | 1 to 3 µM | Cn1cnnc1[C@H](c1cccc(-n2cc3c(C(F)(F)F)cc(CN4CCC(C)(F)CC4)cn3c2=O)c1)C1CCC1 [Compound 160]

Same assay, conditions: second part of Table 2 (head 'Patent Cmpd No / Updated Activity'); same CBL-B TR-FRET IC50 bins A-F; read-out: Updated Activity

Row | SMILES | IC50
27 | C[C@H]1CCCN(Cc2cc(C(F)(F)F)c3cn(-c4cccc([C@@H](CC5(C#N)CC5)c5nncn5C)c4)c(=O)n3c2)C1 (single isomer, unassigned) [Compound 405] | > 10 µM
28 | COC[C@@H]1CCN1Cc1cc(C(F)(F)F)c2cn(-c3cccc([C@H](c4nncn4C)C4CCC4)c3)c(=O)n2c1 [Compound 507] | < 0.1 µM
29 | Cn1cnnc1[C@@H](c1cc(C#N)cc(-n2cc3c(C(F)(F)F)cccn3c2=O)c1)C1CCC1 (single isomer, unassigned) [Compound 453] | 0.301 to 1 µM
30 | CO[C@]1(C)C[C@H]([C@H](c2cccc(-n3cc4c(C(F)(F)F)cc(CN5CCC[C@H](C)C5)cn4c3=O)c2)c2nncn2C)C1 (single isomer, unassigned) [Compound 529] | > 10 µM
31 | C[C@@H]1CN(Cc2cc(C(F)(F)F)c3cn(-c4cccc(C5(c6nncn6C)CC6(CC6)C5)c4)c(=O)n3c2)CCC1(F)F (single isomer, unassigned) [Compound 464] | < 0.1 µM
32 | CN1C(=O)CCN1Cc1cc(C(F)(F)F)c2cn(-c3cccc([C@H](c4nncn4C)C4CCC4)c3)c(=O)n2c1 [Compound 498] | < 0.1 µM
33 | Cn1cnnc1[C@@H](c1cccc(-n2cc3c(C(F)(F)F)cc(CN4CC(C#N)C4)cn3c2=O)c1)C1CCC1 [Compound 549] | < 0.1 µM
34 | CO[C@]1(C)C[C@H]([C@@H](c2cccc(-n3cc4c(C(F)(F)F)cc(CN5CCC[C@H](C)C5)cn4c3=O)c2)c2nncn2C)C1 (single isomer, unassigned) [Compound 530] | > 10 µM
35 | C[C@H](c1cc(C(F)(F)F)c2cn(-c3cccc([C@H](c4nncn4C)C4CCC4)c3)c(=O)n2c1)N1CCC[C@H](C(F)(F)F)C1 (single isomer, unassigned) [Compound 580] | 3 to 10 µM
36 | C[C@H]1CCCN(Cc2cc(C(F)(F)F)c3cn(-c4cccc([C@]5(c6nncn6C)C[C@@](C)(O)C5)c4)c(=O)n3c2)C1 (single isomer, unassigned) [Compound 417] | < 0.1 µM
37 | Cn1cnnc1[C@@H](c1cccc(-n2cc3c(C(F)(F)F)cc(CN4CCCNS4(=O)=O)cn3c2=O)c1)C1CCC1 [Compound 544] | < 0.1 µM
38 | Cn1cnnc1[C@H](c1cccc(-n2cc3c(C(F)(F)F)cccn3c2=O)c1)C1CCC1 [Compound 401_P1] | < 0.1 µM
39 | Cc1cn(CC#N)nc1[C@H](c1cccc(-n2cc3c(C(F)(F)F)cc(CN4CCC[C@H](C)C4)cn3c2=O)c1)C1CCC1 (single isomer, unassigned) [Compound 420] | > 10 µM
40 | C[C@H]1CCCN(Cc2cc(C(F)(F)F)c3cn(-c4cccc([C@@H](c5nc(CO)cn5C)C5CCC5)c4)c(=O)n3c2)C1 (single isomer, unassigned) [Compound 584] | > 10 µM
41 | C[C@H]1CCCN(Cc2cc(C(F)(F)F)c3cn(-c4cccc([C@H](c5nncn5C5CC5)C5CCC5)c4)c(=O)n3c2)C1 (single isomer, unassigned) [Compound 424] | > 10 µM
42 | COC(=O)N1CCC(c2cc(C(F)(F)F)c3cn(-c4cccc([C@H](c5nncn5C)C5CCC5)c4)c(=O)n3c2)CC1 [Compound 395] | 0.1 to 0.3 µM
43 | COCCO[C@H]1CCCN(Cc2cc(C(F)(F)F)c3cn(-c4cccc([C@H](c5nncn5C)C5CCC5)c4)c(=O)n3c2)C1 (single isomer, unassigned) [Compound 518] | < 0.1 µM
44 | COC1([C@@H](c2cccc(-n3cc4c(C(F)(F)F)cc(CN5CCC[C@H](C)C5)cn4c3=O)c2)c2nncn2C)CCC1 (single isomer, unassigned) [Compound 579] | 0.301 to 1 µM

Further lines, results first:

Row | IC50 | SMILES
45 | > 10 µM | CNC(=O)CCc1cc([C@@H](c2nncn2C)C2CCC2)cc(-n2cc3c(C(F)(F)F)cccn3c2=O)c1 (single isomer, unassigned) [Compound 558]
46 | < 0.1 µM | C[C@H]1CCCN(Cc2cc(C(F)(F)F)c3cn(-c4cc([C@@H](c5nncn5C)C5CCC5)ccn4)c(=O)n3c2)C1 [Compound 627_P1]
47 | < 0.1 µM | CN1CCC2(CN(Cc3cc(C(F)(F)F)c4cn(-c5cccc([C@H](c6nncn6C)C6CCC6)c5)c(=O)n4c3)C2)C1=O [Compound 622]
48 | 0.1 to 0.3 µM | COC[C@H]1C[C@@H]([C@H](c2cccc(-n3cc4c(C(F)(F)F)cc(CN5CCC[C@H](C)C5)cn4c3=O)c2)c2nncn2C)C1 (single isomer, unassigned) [Compound 495]
49 | > 10 µM | CNC(=O)Cc1cc([C@H](c2nncn2C)C2CCC2)cc(-n2cc3c(C(F)(F)F)cccn3c2=O)c1 (single isomer, unassigned) [Compound 538]
50 | 0.301 to 1 µM | Cn1cnnc1[C@H](c1cc(-n2cc3c(C(F)(F)F)cccn3c2=O)cs1)C1CCC1 [Compound 403_P2]
51 | < 0.1 µM | Cn1cnnc1[C@@H](c1cccc(-n2cc3c(C(F)(F)F)cc(CN4CCC[C@](C)(O)C4)cn3c2=O)c1)C1CCC1 [Compound 568]
52 | < 0.1 µM | CN1CCC2(CCN(Cc3cc(C(F)(F)F)c4cn(-c5cccc([C@H](c6nncn6C)C6CCC6)c5)c(=O)n4c3)CC2)C1=O [Compound 523]
53 | < 0.1 µM | Cn1cnnc1C1(c2cccc(-n3cc4c(C(F)(F)F)cc(CN5CC6(CC6)C5)cn4c3=O)c2)CCC1 [Compound 451]
54 | < 0.1 µM | CO[C@H]1C[C@](c2cccc(-n3cc4c(C(F)(F)F)cc([C@@H](C)N5CCC[C@H](C)C5)cn4c3=O)c2)(c2nncn2C)C1 (single isomer, unassigned) [Compound 604]
55 | 0.301 to 1 µM | CO[C@H]1C[C@H]([C@H](c2cccc(-n3cc4c(C(F)(F)F)cc(CN5CCC[C@H](C)C5)cn4c3=O)c2)c2nncn2C)C1 (single isomer, unassigned) [Compound 552]

Source: patent US20240228482A1, “COMPOUNDS, COMPOSITIONS AND METHODS OF TREATING CANCER” (HOTSPOT THERAPEUTICS, INC., priority 2021, published 2024)
